Test results as given in US11241453B2, “Arsenic compositions” (Eupharma Pty Ltd, priority 2016, dated 2022).
Values joined by “and” are separate entries in the source; they are usually repeats but may differ in a detail not shown here. Equal values may be shown once. Read-outs that look alike come from different tables or passages of the source.

What was measured:
[1] = cited from earlier work
[2] = cited from earlier work; remark: listed apart in the source
[3] = type: physicochemical
[4] = Dissolution in near neutral solution at pH 6.5; type: physicochemical; conditions: for Time until capsule opens: pH 6.5, 150 mls, 37° C., stirred
Protocol: Dissolution experiments were carried out on NaHAs2O4 at 2 different pH levels. Firstly, simulated gastric fluid (pH 1.24) was used, then a near neutral solution at pH 6.5. Prior to addition of the capsules, 150 mls of the dissolution solution was heated to 37° C. and the solution contained a spin bar at a speed of 2. The appropriate capsule was then added.

[5] = gelatin capsule in 150 mL simulated gastric solution, approx. pH 1.2, 37° C.

Row | Substance | Time required for complete dissolution ([1]; 0.1 M NaOH) [min] | Dissolution (in words) ([1]; in vitro, strong stirring, low pH) | Solubility (in words) ([2]; neutral pH) | Solubility in water (in words) ([2]; physiological or acidic pH) | Time until capsule opens ([3]; 10 mg capsule, pH 1.24, 150 mls, 37° C., stirred) | Time to complete dissolution in gastric juices [3] | Time to complete dissolution in gastric juices ([3]; 'even less than') | Time until capsule shell had dissolved [3, 5] | Time until contents had completely dissolved [3, 5] [min] | Time to dissolve ([3]; pH about 1) | Time until powder was completely dissolved ([3]; simulated gastric fluid pH 1.24, 37° C.) | Dissolution in stomach acid (in words) ([3]; stomach acid) | Time until capsule opens ([4]; 1 mg capsule) | Time until capsule opens ([4]; 10 mg capsule) | Time until powder was completely dissolved ([4]; near neutral solution pH 6.5, 37° C.) | Time to dissolve ([4]; pH 7)
1 | arsenic trioxide | 15 to 20 | very slow process | only slightly soluble | only sparingly soluble |  |  |  |  |  |  |  |  |  |  |  | 
2 | sodium diarsenic tetraoxide [NaHAs2O4] |  |  |  |  | 35 s and 40 s | less than 1 min | less than 30 seconds | less than or about one minute | ≤ 2 | less than 10 seconds | less than two minutes | very rapidly dissolved in stomach acid without any precipitation | 50 s and 45 s | 55 s and 50 s | less than two minutes | well under a minute
